Patent US12521439B2, “Methods and materials for modulating Nrf2 pathway” (The General Hospital Corporation, priority 2019, dated 2026)
Entries after “also recorded” stand apart in the source; their conditions may differ. Where a name gives a salt, the structure may show the parent alone.

Key:
[1] = Solubility in aqueous media; format: physicochemical
U87 glioma cells = assay: Cell viability (CellTiter-Glo), U87; format: cell-based, human; settings: for U87 cell viability: same doses as ARE test, FIG. 12D
Description: Cell culture: MDA-MB-231 and U87 (U87-MG) cells were obtained from the American Type Culture Collection (ATCC). 293T human embryonic kidney fibroblasts were provided by Dr. Xandra Breakefield (Massachusetts General Hospital). All three cell lines were grown in Dulbecco's modified Eagle medium supplemented with 10% fetal bovine serum (Gemini Bio-products), 100 U penicillin, and 0.1 mg/mL streptomycin (Sigma). All cells were maintained at 37° C. in a humidified 5% CO2 incubator. GSCs were obtained from tumor tissues of GBM patients following surgical resection, under approval from the corresponding Institutional Review Board. These cells have been previously characterized (ref. 37-39) and were maintained in culture as neurospheres in Neurobasal medium (Gibco) supplemented with heparin (2 μg/mL; Sigma) and recombinant EGF (20 ng/mL) and bFGF-2 (10 ng/mL; Peprotech). Human Astrocytes were obtained from ScienCell and cultured in Astrocytes Medium (ScienCell)
(§1) Cell viability: Cells were plated in 96-well plates and treated with the corresponding compounds. Cell viability was measured by adding 25 μl/well of CellTiter-Glo (Promega) followed by 10 minutes incubation and transfer to a white 96-well plate. Bioluminescence was quantified using Synergy HTX multimode reader (Biotek).

ARE (Nrf2 pathway) = assay: ARE-Gluc luciferase reporter (normalized to SV40-Vluc); format: cell-based, human; settings: for ARE activity: U87, CINN 100, FUM 50 μM, SULF 5 μM, FIG. 12C
Description: DNA expression constructs: ARE reporter was designed and generated based on our previously published reporter for monitoring of the transcription factor Nuclear Factor Kappa B (NFkB). NFkB TRE elements were removed and replaced with four copies of the ARE enhancer sequence. This reporter consists of a CSCW lentivirus vector in which we have introduced two copies of the 1.2 kb chicken beta-globin (HS4) insulator elements, a TATA box acting as a minimal promoter upstream of the secreted Gaussia luciferase (Gluc). pcDNA3-HA2-Keap1 (Addgene plasmid #21556) and pcDNA3-HA2-Keap1 delta BTB (Addgene plasmid #21593) were a gift from Yue Xiong^2. pHAGE DN Cullin 3 (DN-CUL3) was a gift from Stephen Elledge (Addgene plasmid #41913). Constructs expressing constitutively active Gluc, Firefly luciferase (Fluc) and Vargula luciferase (Vluc) were previously describe. MISSION shRNA Bacterial Glycerol Stocks for Keap1 as well as a non-target shRNA were obtained from Sigma. Transfection of plasmid DNA was performed using Lipofectamine 2000 (Invitrogen) as per manufacturer's guidelines. Lentivirus packaging and titration was performed in 293T cells by the MGH viral vector core facility following standard protocols. Keap1 mutant C151S plasmid was kindly provided by Dr. Wooyoung Hur.
Luciferase assay: Coelenterazine (20 μM; Nanolight), The Gluc substrate was added to a 25 μL aliquot of conditioned medium and photon counts were measured using a luminometer. Similarly, the secreted Vluc activity was measured by adding its substrate vargulin (5 ng/mL; Nanolight). Cells stably expressing Gluc under the ARE enhancer sequence and Vluc under the constitutively active SV40 minimal promoter were used to determine the ARE reporter activity. The normalized Gluc/Vluc ratio was used as a marker for ARE activation.

BRD4 [2] = target: T1, BRD4 (Mus musculus, UniProt Q9ESU6); assay: BRD4 degradation in mouse glioma model in vivo (Western blotting); design: species or system mice; settings: CT2A glioma; intratumoral, intravenous and intranasal routes; 24 hrs after last injection
T1 construct: CT2A glioma cells expressing mCherry fluorescent protein were implanted in the brain of mice; from tissue; host or cells: CT2A glioma tumour removed from mouse brain
Description: CT2A glioma cells expressing mCherry fluorescent protein were implanted in the brain of mice and 2 weeks later, once tumor reached a significant size, mice were injected with 0.7 mg/kg body weight of OBT-JQ1 using different injection routes (1) direct intratumoral injection (single injection), intravenously (once/day over 3 days) and intranasally (once/day over 3 days, an injection route that typically bypasses the blood-brain barrier). 24 hrs after the last injection, brains were removed and the tumor was lysed and analyzed by Western blotting for BRD4 and mCherry and actin loading controls.

cancer cells = assay: Cancer cell death with OBT, JQ1, OBT-JQ1; format: cell-based; settings: FIG. 23
Description: as §1

BRD4 [3] = target: T2, BRD4 (Homo sapiens, UniProt O60885); assay: BRD4 degradation in glioma cells; format: cell-based; design: endogenous in cells; settings: FIG. 15
Description: (§2) Immunoblotting and Immunoprecipitation analysis: Antibodies against PDI, GAPDH, HA-tag, Ubiquitin, Keap1 and beta-actin (Cell Signaling) as well as secondary Horseradish peroxidase (HRP) conjugated antibodies: sheep anti-mouse IgG-HRP and donkey antirabbit IgG-HRP (Amersham Pharmacia Biotech) were used in this study. For protein expression analysis, cells were lysed in RIPA buffer (150 mM NaCl, 50 mM TRIS, pH 8.0, 1% NP-40, 0.5% deoxycholate, 0.1% SDS) supplemented with 1× protease inhibitors cocktail (Roche). Proteins were quantified using a Bradford protein determination assay (Bio-Rad) followed by electrophoresis in 10% NuPAGE Bis-Tris gels (Life Technologies) and transfer to nitrocellulose membranes (Bio-Rad). Membranes were incubated overnight with antibodies in 1-5% non-fat milk powder in PBS/0.5% TWEEN. Proteins were detected with SuperSignal West Pico Chemiluminescent Substrate (Pierce). For immunoprecipitation assays, cells were lysed in RIPA buffer supplemented with protease inhibitors and 2 mM N-ethylmaleimide. Cell lysates were pre-cleared with protein A agarose beads (Cell Signaling) and incubated with anti-HA antibody with gentle rocking overnight at 4° C. followed by incubation with protein A agarose beads and subsequent washing and elution steps. Electrophoresis, transfer and immunoblot analysis was performed as described above.

BRD4 [4] = target: T2, BRD4; assay: BRD4 degradation in breast cancer cells; format: cell-based; design: endogenous in cells; settings: FIG. 16
Description: as §2

BRD4 [5] = target: T2, BRD4; assay: OBT-JQ1 PROTAC mechanism (proteasome block, Keap1/CUL3 knockdown); format: cell-based; design: endogenous in cells
Description: as §2

BRD4 [6] = target: T2, BRD4; assay: BRD4 degradation in patient-derived glioma cells; format: cell-based; design: endogenous in cells; host or cells: patient-derived glioma cells; patient-derived breast cancer cells; settings: FIG. 17
Description: as §2

BRD4 [7] = target: T2, BRD4; assay: BRD4 degradation in patient-derived breast cancer cells; format: cell-based; design: endogenous in cells; host or cells: patient-derived glioma cells; patient-derived breast cancer cells; settings: FIG. 18
Description: as §2

With COc1cc(O)c(O)cc1C(/C=C/c1ccccc1)SCCO (stereo not drawn) [AF20a, (E)-4-(1-((2-hydroxyethyl)thio)-3-phenylallyl)-5-methoxybenzene-1,2-diol] the “solubility compared to OBT” value [1] was “overcome the limited solubility of OBT”.
In the case of COc1cc(O)c(O)cc1/C=C/C(SCCO)c1ccccc1 (stereo not drawn) [AF20b, (E)-4-(3-((2-hydroxyethyl)thio)-3-phenylprop-1-en-1-yl)-5-methoxybenzene-1,2-diol], the “solubility compared to OBT” value [1] is reported as “overcome the limited solubility of OBT”.
In the case of COC(=O)[C@]12CCC(C)(C)C[C@H]1[C@H]1C(=O)C=C3[C@@]4(C)C=C(C#N)C(=O)C(C)(C)[C@@H]4CC[C@@]3(C)[C@]1(C)CC2 [CDDO-Me, 2-cyano-3,12-dioxoolean-1,9-dien-28-oic acid-methyl ester], the cell viability (U87 glioma cells; higher doses, U87 cells, FIG. 12B) is reported as “marked decrease” and the ARE-Gluc reporter activity (ARE (Nrf2 pathway); U87 and MDA-MB-231 cells, FIG. 12A) is reported as “increased reporter activity”.
With COC1=CC(=O)C(OCC(=O)NCCCOCCOCCOCCCNC(=O)CC2N=C(c3ccc(Cl)cc3)c3c(sc(C)c3C)-n3c(C)nnc32)=C/C1=C/C=C/c1ccccc1 (stereo not drawn) [OBT-JQ1, 2-(4-(4-chlorophenyl)-2,3,9-trimethyl-6H-thieno[3,2-f][1,2,4]triazolo[4,3-a][1,4]diazepin-6-yl)-N-(1-(((Z)-4-methoxy-6-oxo-3-((E)-3-phenylallylidene)cyclohexa-1,4-dien-1-yl)oxy)-2-oxo-7,10,13-trioxa-3-azahexadecan-16-yl)acetamide] the “BRD4 degradation in brain tumors” value (BRD4 [2]) was “induces BRD4 degradation; also recorded: efficient BRD4 degradation”, the “induced cell death in presence of antioxidant NAC” value (cancer cells) was “not protected” and the BRD4 degradation (BRD4 [3]) was “promotes targeted degradation of BRD4”. The BRD4 degradation (BRD4 [4]) was “promotes targeted degradation of BRD4”, the “effect of OBT-JQ1 when proteasome is blocked” value (BRD4 [5]; FIG. 20) was “reverses the effect” and the “PROTAC activity in Keap1 and CuL3 knockdown” value (BRD4 [5]; FIG. 21) was “retains PROTAC activity”. For the same compound, the BRD4 degradation (BRD4 [6]) was “promotes targeted degradation of BRD4” and the BRD4 degradation (BRD4 [7]) was “promotes targeted degradation of BRD4”.
For O=CC=Cc1ccccc1 [cinnamaldehyde], the U87 cell viability (U87 glioma cells) was “moderate decrease” and the ARE activity (ARE (Nrf2 pathway)) was “increased ARE activity”.
In the case of CCOC(=O)/C=C/C(=O)OCC [diethyl fumarate], the U87 cell viability (U87 glioma cells) is reported as “moderate decrease” and the ARE activity (ARE (Nrf2 pathway)) is reported as “increased ARE activity”.
With C[S+]([O-])CCCCN=C=S (stereo not drawn) [sulforaphane] the U87 cell viability (U87 glioma cells) was “moderate decrease” and the ARE activity (ARE (Nrf2 pathway)) was “increased ARE activity”.
